Test results published in publication PMC11396935, “Exploration of Compounds with 2-Phenylbenzo[d]oxazole Scaffold as Potential Skin-Lightening Agents through Inhibition of Melanin Biosynthesis and Tyrosinase Activity” (Molecules, 2024).
Where two headings read alike, the source gives them in different places.

Tests used:
mushroom tyrosinase [1] = target: T1, mushroom tyrosinase (Agaricus bisporus, UniProt C7FF04); assay: Kinetic study using mushroom tyrosinase (Lineweaver–Burk and Dixon plots); assay type: biochemical; conditions: for inhibition mode (Lineweaver–Burk plots): substrate L-dopa 0.5–16 mM; for Ki: substrate L-dopa 1, 2, 4, 8 mM, read-out: inhibition constant Ki (Dixon plot)
T1 construct: purchased Sigma-Aldrich (St. Louis, MO, USA)
T1 sequence (C7FF04 1-392 limits assumed): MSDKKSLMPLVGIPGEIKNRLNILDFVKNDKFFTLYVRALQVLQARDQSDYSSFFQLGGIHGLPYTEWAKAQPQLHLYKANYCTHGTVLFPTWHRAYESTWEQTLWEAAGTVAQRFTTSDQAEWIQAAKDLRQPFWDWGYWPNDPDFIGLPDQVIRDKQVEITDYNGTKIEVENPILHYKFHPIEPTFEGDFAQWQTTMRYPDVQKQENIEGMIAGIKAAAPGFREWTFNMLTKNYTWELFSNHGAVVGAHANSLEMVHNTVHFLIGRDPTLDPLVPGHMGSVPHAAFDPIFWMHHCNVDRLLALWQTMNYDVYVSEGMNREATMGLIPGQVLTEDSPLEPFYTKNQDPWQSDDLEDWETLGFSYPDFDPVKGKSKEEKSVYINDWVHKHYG
Description: For the inhibition mechanism study of the 2-phenylbenzoxazole compounds, kinetic studies of mushroom tyrosinase were conducted. […] Kinetic experiments were performed using various concentrations of L-dopa. Lineweaver–Burk plots were obtained for each compound by plotting the inverse of the L-dopa concentration against the inverse of the initial rate of dopachrome production (Figure 4). In the Lineweaver–Burk plots (Figure 4B,C), the lines for compounds 8 and 13 merged at one point on the y-axis, whereas the lines for 3 (Figure 4A) merged at one point in the second quadrant.
These Dixon plots were obtained by plotting the inhibitor concentration against the inverse of the initial dopachrome production rate (Figure 5). The four lines for each Dixon plot were merged at one point in the second quadrant. The absolute x-coordinate of each merged point represents the Ki value of each compound.
3.4. Kinetic Study Experiment Using Mushroom Tyrosinase
Mushroom tyrosinase was incubated with 2-phenylbenzoxazole inhibitors (3, 8, or 13) in the presence of various concentrations (0.5–16 mM) of L-dopa to measure the initial dopachrome production rate. An aqueous substrate mixture, consisting of phosphate buffer (pH 6.5; 17.2 mM) and L-dopa (345 μM), was prepared. A 96-well plate containing the inhibitor DMSO solution (10 μL), aqueous mushroom tyrosinase solution (20 μL; 20 units), and aqueous substrate mixture (170 μL) in each well was incubated for 20 min at 37 °C. During incubation, the absorbance at 475 nm was recorded at 5 min intervals using an ELISA reader to prepare Lineweaver–Burk plots for each inhibitor.

B16F10 cells [2] = assay: B16F10 cell viability assay (EZ-Cytox); assay type: cell-based, murine; conditions: 0, 1, 2, 5 μM
Description: Since the 2-phenylbenzoxazole compounds 3, 8, and 13 were identified as being potent mushroom tyrosinase inhibitors, they were used in B16F10-cell-based experiments. Before assessing the biological impact of compounds 3, 8, and 13 in the B16F10 cells, the effect of these compounds on B16F10 cell viability was evaluated. The cells were treated with the compounds at concentrations of 0, 1, 2, and 5 μM for 48 and 72 h, respectively.
3.7. B16F10 Cell Viability Assay
Test samples (3, 8, and 13) were added to each well at final concentrations of 0, 1, 2, and 5 μM and cultivated for 48 and 72 h, respectively. Each well was treated with 10 μL of EZ-Cytox solution (EZ-1000®, DoGenBio, Seoul, Republic of Korea) and cultivated for 2 h. The absorbance of each well was measured at 450 nm using an ELISA reader.

mushroom tyrosinase [3] = target: T1, mushroom tyrosinase; assay: Mushroom tyrosinase activity inhibition assay (L-tyrosine or L-dopa as substrate); assay type: biochemical; conditions: for IC50: mushroom tyrosinase, 37 °C, mean ± SEM of triplicates
Description: 3.3. Tyrosinase Activity Assay Using Mushroom Tyrosinase
The tyrosinase inhibitory activity of the 2-phenylbenzoxazoles was evaluated using a mushroom tyrosinase activity assay, following a previously described method. An aqueous substrate mixture, consisting of phosphate buffer (pH 6.5; 17.2 mM) and L-tyrosine or L-dopa (345 μM), was prepared. A 96-well plate containing the test sample in dimethyl sulfoxide (DMSO) solution (10 μL), aqueous mushroom tyrosinase solution (20 μL; 200 units), and aqueous substrate mixture (170 μL) in each well was incubated at 37 °C for 15 min for L-dopa and 30 min for L-tyrosine, respectively.

[4] = system: B16F10 cellular tyrosinase; assay: Cellular tyrosinase activity assay in B16F10 cells; assay type: cell-based, murine; conditions: 1, 2, 5 μM; kojic acid 5 μM; α-MSH 1 μM + IBMX 200 μM, 72 h
Description: To investigate the origins of the anti-melanogenic effects of compounds 3, 8, and 13, their impacts on B16F10 cellular tyrosinase inhibition were evaluated. The experiment utilized a similar experimental method and the same concentrations as those used in the melanin content experiment. Compounds 3, 8, and 13 (1, 2, and 5 μM), kojic acid (5 μM: positive control), and stimulators (1 μM α-MSH and 200 μM IBMX) were used in this experiment. Prior to treatment with the stimulators for 72 h, the test samples (3, 8, 13, and kojic acid) were pre-treated for 1 h.
3.9. Cellular Tyrosinase Activity Assay in B16F10 Cells
The effects of compounds 3, 8, and 13 on B16F10 cellular tyrosinase activity were assessed using a previously reported method. B16F10 cells were seeded, treated with the samples and stimulators, and cultured for 72 h in the same manner as for the cellular melanin content assay. To lyse the cultured cells, a lysis buffer was prepared containing 1 mM phenylmethylsulfonyl fluoride, 50 mM phosphate buffer, and 1% Triton X-100 (5:90:5, v/v/v). The cultivated cells were lysed by adding the prepared lysis buffer (100 µL) after washing twice with PBS. The lysed cells were centrifuged for 30 min at 4 °C and 10,000 g after freezing for 1 h at −80 °C. The supernatants (80 µL) and 10 mM L-dopa (20 µL) were added to each well of a 96-well plate and cultivated for 10 min at 37 °C. The optical density was measured at 475 nm using an ELISA reader. Normalization was performed using a Pierce BCA Protein Assay Kit.

B16F10 cells [5] = assay: Cellular melanin content assay in B16F10 cells; assay type: cell-based, murine; conditions: 72 h; for melanin content in B16F10 cells: 1, 2, 5 μM, α-MSH 1 μM + IBMX 200 μM; for melanin content in B16F10 cells at 5 μM vs kojic acid: compound 5 μM, kojic acid 5 μM, α-MSH + IBMX
Description: The B16F10 cells were exposed to each compound (1, 2, and 5 μM) for 1 h. Following this, stimulators (1 μM α-MSH [α-melanocyte-stimulating hormone] and 200 μM IBMX [3-isobutyl-1-methylxanthine]) were treated for 72 h. Kojic acid (5 μM) was utilized as a comparative control.
3.8. Cellular Melanin Content Level Assay in B16F10 Cells
The effects of compounds 3, 8, and 13 on B16F10 cellular melanin production were investigated using a previously reported method. B16F10 cells (5 × 10^3 cells per well) were seeded in a 6-well plate and cultured under the same conditions as the cell culture for 24 h. […] Stimulators, including 1 μM α-melanocyte-stimulating hormone (α-MSH) and 200 μM 3-isobutyl-1-methylxanthine (IBMX), were then added. After 72 h of cultivation, the cells were rinsed with PBS, detached from the bottom of each well using Trypsin-EDTA, and centrifuged for 10 min at 10,000× g and 4 °C. The obtained pellets were lysed with 100 μL of 1N-NaOH solution for 1 h at 60 °C and transferred to a 96-well plate. The optical density was measured at 405 nm using an ELISA reader. Normalization was conducted using a Pierce BCA Protein Assay Kit (Thermo Scientific, MA, USA).
Melanin content (%) = (ΔODsam/ΔODcon) × 100%, where ODsam and ODcon represent the optical densities of the sample and control, respectively.

[6] = system: B16F10 tyrosinase in situ; conditions: compounds 1, 2, 5 μM; kojic acid 5 μM; α-MSH + IBMX 72 h; excess L-dopa
Description: To evaluate the effect of the compounds on in situ tyrosinase activity, an experiment using B16F10 cells was performed as previously described [34, 35]. […] Excess L-dopa was added to increase their melanin production prior to the acquisition of cell images.
In Situ Tyrosinase Activity Assay Using B16F10 Cells and L-dopa
In situ tyrosinase activity was measured in B16F10 cells using L-dopa, as reported previously [34]. […] The cells were processed as follows: (1) fixing with 4% paraformaldehyde for 40 min, (2) washing with PBS, and (3) permeabilizing with 0.1% Triton X-100 for 2 min. After washing with PBS, the cells were stained with L-dopa (2 mM; 500 μL) at 37 °C for 2 h. Stained images were collected using a camera connected to a microscope (Motic, Hong Kong).

[7] = substrate L-dopa, 15 min, read-out: IC50 Values, L-Dopa
[8] = substrate L-tyrosine, 30 min, read-out: IC50 Values, L-Tyrosine

inhibition mode (Lineweaver–Burk plots) (mushroom tyrosinase [1]) | IC50 (mushroom tyrosinase [3]; [7]) | IC50 (mushroom tyrosinase [3]; [8]) | tyrosinase potency relative to kojic acid (mushroom tyrosinase [3]; substrate L-tyrosine) | Structure (SMILES) | cytotoxicity to B16F10 cells, 48 h (B16F10 cells [2]) | cytotoxicity to B16F10 cells, 72 h (B16F10 cells [2]) | B16F10 cellular tyrosinase activity [4] | melanin content in B16F10 cells (B16F10 cells [5]) | melanin content in B16F10 cells at 5 μM vs kojic acid (B16F10 cells [5]) | melanin formation, in situ tyrosinase activity in B16F10 cells [6] | Ki (mushroom tyrosinase [1])
mixed-type inhibitor | 16.8 ± 0.57 µM | 0.51 µM | 28 times | Cc1ccc2nc(-c3ccc(O)cc3O)oc2c1 [Compound 3, 4-(6-Methylbenzo[d]oxazol-2-yl)benzene-1,3-diol] | not cytotoxic | weak cytotoxicity at the highest concentration tested | reduced the stimulator-induced tyrosinase activity in a concentration-dependent manner | decreased the melanin content in a concentration-dependent manner | decreased the melanin content levels much more strongly than kojic acid | reduced melanin formation in a concentration-dependent manner | –
competitive inhibitors | 20.8 ± 1.02 µM | 3.5 ± 0.07 µM | – | Cc1ccc2oc(-c3ccc(O)cc3O)nc2c1 [Compound 13, 4-(5-Methylbenzo[d]oxazol-2-yl)benzene-1,3-diol] | not cytotoxic | did not show cytotoxicity | reduced the stimulator-induced tyrosinase activity in a concentration-dependent manner | decreased the melanin content in a concentration-dependent manner | – | reduced melanin formation in a concentration-dependent manner | 17.2 µM

Structure (SMILES) | inhibition mode (Lineweaver–Burk plots) (mushroom tyrosinase [1]) | IC50 (mushroom tyrosinase [3]; [7]) | IC50 (mushroom tyrosinase [3]; [8]) | tyrosinase potency relative to kojic acid (mushroom tyrosinase [3]; substrate L-tyrosine) | cytotoxicity to B16F10 cells, 48 h (B16F10 cells [2]) | cytotoxicity to B16F10 cells, 72 h (B16F10 cells [2]) | B16F10 cellular tyrosinase activity [4] | melanin content in B16F10 cells (B16F10 cells [5]) | melanin content in B16F10 cells at 5 μM vs kojic acid (B16F10 cells [5]) | melanin formation, in situ tyrosinase activity in B16F10 cells [6] | Ki (mushroom tyrosinase [1])
Oc1ccc(-c2nc3ccc(Cl)cc3o2)c(O)c1 [Compound 8, 4-(6-Chlorobenzo[d]oxazol-2-yl)benzene-1,3-diol] | competitive inhibitors | 20.4 ± 1.99 µM | 2.22 ± 0.16 µM | – | not cytotoxic | did not show cytotoxicity | reduced the stimulator-induced tyrosinase activity in a concentration-dependent manner | decreased the melanin content in a concentration-dependent manner | decreased the melanin content levels much more strongly than kojic acid | reduced melanin formation in a concentration-dependent manner | 12.5 µM
